This note sets out measurements from ChEMBL document CHEMBL1147749, “Aromatic sulfide inhibitors of histone deacetylase based on arylsulfinyl-2,4-hexadienoic acid hydroxyamides” (J Med Chem, 2006).

A value given as a limit tells only on which side of the number the result lay.

The target in experiment [1] is Histone deacetylase. Description: Inhibition of HDAC in rat liver homogenate. The experiment is classed as tissue-based.
Experiment [2] concerns the target Histone deacetylase. Description: Inhibition of HDAC in human leukemic CEM cells. The class given is cell-based. The conditions noted are these: ccrf-cem.
For a further experiment, the system named is CCRF-CEM. As to the kind of experiment: Inhibition of human leukemic CEM cell viability. The class given is functional, cell-based.
A further experiment deals with HCT-116. Description: Inhibition of human colorectal cancer HCT116 cell viability. The class given is functional, cell-based.
The test system of another experiment is MCF7. Description: Inhibition of human breast cancer MCF7 cell viability. The experiment is classed as functional, cell-based.
A further experiment concerns SUD4. As to the kind of experiment: Inhibition of human lymphoma SUD4 cell viability. The experiment is classed as functional, cell-based. The conditions noted are these: SU-DHL-4.

As for `CC(/C=C/C(=O)NO)=C\C(C)Sc1ccc(N(C)C)cc1` (centres undefined), the figures for the IC50 at Histone deacetylase [1], against Histone deacetylase [2] and with CCRF-CEM were 340 nM, 5300 nM and 7500 nM, respectively.
For the compound `CN(C)c1ccc2sc(/C=C/C=C/C(=O)NO)cc2c1`, the IC50 against Histone deacetylase [1] is more than 25000 nM.
For the compound `O=C(/C=C/C=C/CSc1ccc(Cl)cc1)NO`, the figures for the IC50 against Histone deacetylase [1], at Histone deacetylase [2] and in the experiment on CCRF-CEM were 310 nM, 1600 nM and 1600 nM, respectively.
As for `O=C(CCCCCC[S+]([O-])c1ccc(Cl)cc1)NO` (centres undefined), the IC50 against Histone deacetylase [1] was determined as 380 nM.
Compound `O=C(CCCCCS(=O)(=O)c1ccccc1)NO` had an IC50 against Histone deacetylase [1] of 40 nM.
With `O=C(CCCCCSc1ccc(NS(=O)(=O)c2ccc(Cl)cc2)cc1)NO`, the IC50 against Histone deacetylase [1] turned out to be 110 nM.
Same read-out and setting: with `CN(C)c1ccc([S+]([O-])CCCCCC(=O)NO)cc1` (centres undefined) the figure was 180 nM.
Turning to `CN(C)c1ccc(Sc2cccc(/C=C/C(=O)NO)c2)cc1`, the IC50 at Histone deacetylase [1] was 160 nM; against Histone deacetylase [2], 8600 nM; with CCRF-CEM, 3400 nM.
`O=C(CCCCCSc1ccccc1)NO` returned an IC50 on Histone deacetylase [1] of 120 nM. In other words, the sub-micromolar range.
For `O=C(CCCCC[S+]([O-])c1ccccc1)NO` (centres undefined), the concentration for half-maximal inhibition (IC50) against Histone deacetylase [1] is 60 nM; against Histone deacetylase [2] it was 7700 nM.
Take `O=C(/C=C/C=C/CSc1ccccc1)NO`: the half-inhibitory concentration (IC50) on Histone deacetylase [1] is 390 nM; at Histone deacetylase [2] it was more than 25000 nM.
`O=C(/C=C/C=C/C[S+]([O-])c1ccccc1)NO` (centres undefined): the half-maximal inhibitory concentration (IC50) against Histone deacetylase [1] is 240 nM; against Histone deacetylase [2], more than 25000 nM.
`O=C(CCCCCSc1ccc(Cl)cc1)NO`: the IC50 at Histone deacetylase [1] is 260 nM; against Histone deacetylase [2] it was more than 25000 nM.
With `O=C(/C=C/C=C/C[S+]([O-])c1ccc(Cl)cc1)NO` (centres undefined), the 50% inhibitory concentration (IC50) at Histone deacetylase [1] is 400 nM; on Histone deacetylase [2], 1200 nM.
With `O=C(/C=C/C=C/CSc1ccc2ccccc2c1)NO`, the half-inhibitory concentration (IC50) stood at 700 nM against Histone deacetylase [1], 9400 nM against Histone deacetylase [2] and 1700 nM with CCRF-CEM.
Regarding `O=C(CCCCC[S+]([O-])c1ccc(Cl)cc1)NO` (centres undefined), the IC50 was 3900 nM with HCT-116, 6100 nM in the experiment on MCF7 and 7500 nM in the experiment on SUD4.
For the compound `COc1ccc([S+]([O-])C/C=C/C=C/C(=O)NO)cc1` (centres undefined), the IC50 at Histone deacetylase [1] is 410 nM; at Histone deacetylase [2], 5400 nM; in the experiment with CCRF-CEM it was 9600 nM.

A word on the IC50: it is the midpoint of a concentration-inhibition curve. Lower therefore signals greater potency.
